Assays:
human abdominal skin = test: In vitro human skin permeation and skin disposition, flow-through diffusion cells (Example 1); type: in vitro ADME; details: for 36 h skin conc.: Table 14; for permeation through the skin: both the PG donor solution and gel formulation
Procedure: Flow through diffusion cells were used for the permeation studies. HEPES-buffered Hanks' balanced salts containing 40% (polyethylene glycol) PEG 400 with gentamicin was used for the receiver compartment. Donor solution was comprised of either 100% propylene glycol (PG) solution or a rubbed in gel formulation. […] Drug accumulation in the skin after a 24 or 36 h diffusion experiment was determined as μmol/g wet tissue weight.
The skin samples used in the following experiments were obtained from abdominal reduction surgery and dermatomed to a thickness of approximately 200 μm. The skin samples used herein were frozen at −20° C. for less than six months.
1 L of receiver fluid was prepared by measuring 1 L of nanopure water into a graduated cylinder. 90% of the water was added to an Erlenmeyer flask. Hanks' salts (1 bottle) were added to the water along with 5.96 g of HEPES and 0.35 g of sodium bicarbonate. The pH of the solution was adjusted with 1 N sodium hydroxide solution to pH 7.4. The remaining water was added and the receiver fluid was filtered through a 0.2μ filter (Millipore, Billerica, Mass.). 50 mg of gentamicin was added to the filtered receiver fluid and 400 mL of the receiver fluid was removed and replaced with 400 mL of PEG 400.
Two different formulations were used for charging the donor compartment. Drugs were made up in either 100% PG or a gel formulation. For the PG solution, approximately 50-120 mg of the appropriate drug was weighed into a glass silanized culture tube. The gel formulation resulted from the mixing of absolute ethanol, nanopure water, IPM, Carbopol® 980, 0.1 N aqueous sodium hydroxide solution and the respective drug.
Dermatomed skin harvested from abdominoplasty, stored at −20° C., was used for the experiments. A PermeGear flow-through (In-Line, Riegelsville, Pa.) diffusion cell system was used for the skin permeation studies.
Diffusion cells were kept at 32° C. with a circulating water bath. Human epidermal skin was arranged in the diffusion cell with stratum corneum (upper layer of skin) facing the donor compartment. Permeation area of the skin was 0.95 cm^2. Data was collected from a human skin donor with three to four diffusion cells per treatment.
Receiver solution was HEPES-buffered Hanks' balanced salts with gentamicin containing 40% PEG 400 at a pH of 7.4 and flow rate was adjusted to 0.8 mL/h. Each cell was charged with 0.050 mL of the respective drug formulation (donor solution) or with 0.035 mL of gel formulation which was rubbed into the skin for 15 sec with a Teflon coated rod. The formulation was applied to ensure complete coverage. Diffusion cells were covered with a cap for the duration of the study.
Samples were collected into scintillation vials in 3 h increments for either 24 h or 36 h. All the samples were stored at 4° C. until extracted. An aliquot (0.5 mL) of the diffusion sample was placed into a silanized HPLC vial and 0.5 mL of acetonitrile was added to the sample, capped and vortexed.
At the end of the experiment, the skin tissue was removed from the diffusion cell, rinsed with nanopure water, and blotted dry with a paper towel. The skin was tape stripped twice using book tape (Scotch™, 3M, St. Paul, Minn.) to remove drug formulation adhering to the tissue surface. The area of skin in contact with the drug was cut out, chopped up and placed in a pre-weighed scintillation vial. Ten mL of acetonitrile was added to the vial and drug was extracted from the skin by shaking at room temperature overnight. The following day a 0.1 mL aliquot was removed and diluted with an additional 0.9 mL of acetonitrile. The diluted sample was added to the silanized HPLC vial for analysis.
At the end of the experiment, a 0.01 mL aliquot of the PG donor solution was removed and added to a scintillation vial containing 10 mL of acetonitrile. The vials were vortexed and then sonicated for 15 min. An aliquot of 1 mL was removed and transferred into a silanized HPLC vial for analysis.

[1] = Plasma stability of cannabidiol prodrugs (bioconversion to parent drug); type: in vitro ADME; details: Table 20, di-prodrug in plasma; for % mono-prodrug at time (h): mono-prodrug formed
Procedure: An approximated 1 mg/mL stock solution of each prodrug was prepared in 100 μL of ethanol and 900 μL of acetonitrile. Ten (10) μL of stock was spiked into 1 mL of plasma and vortexed. The samples were kept sealed in an amber vial and samples were obtained to analyze for bioconversion to parent drug.

[2] = Table 3, in propylene glycol, prodrug applied
[3] = Table 4, in propylene glycol, prodrug applied
[4] = Table 5, in propylene glycol, prodrug applied

C=C(C)C1CCC(C)=CC1c1c(OC(=O)OCN(CC)CC)cc(CCCCC)cc1OC(=O)OCN(CC)CC (stereo not drawn) [ALL00102]
flux enhancement (in words) (human abdominal skin; Example 1): No flux enhancement | form in which the prodrug permeated through the human skin (human abdominal skin; Example 1): permeated through the human skin as cannabidiol | found in the skin disposition (tissue) samples (human abdominal skin; Example 1): Both cannabidiol and intact prodrug were found | intact prodrug in the diffusion samples (receiver samples) (human abdominal skin; Example 1): No intact prodrug was found | total cannabidiol in the skin compared to cannabidiol (human abdominal skin; Example 1): higher | 24 h cumulative amt (human abdominal skin; [2]): 8.6 ± 6.3 nmol | Flux (human abdominal skin; [2]): 0.6 ± 0.5 nmol/cm^2/h | 24 h cumulative amt (human abdominal skin; [3]): 9.1 ± 5.0 nmol | Flux (human abdominal skin; [3]): 0.7 ± 0.3 nmol/cm^2/h | Lag time (human abdominal skin; [3]): 11.0 ± 2.8 h | 24 h skin conc (human abdominal skin; Table 4, in propylene glycol, prodrug applied, found in skin as CBD): 18.9 ± 9.9 (CBD) μmol/g | 24 h skin conc (human abdominal skin; Table 4, in propylene glycol, prodrug applied, found in skin as PD (prodrug)): 73.4 ± 35.5 (PD) μmol/g | 24 h cumulative amt (human abdominal skin; [4]): 13.7 ± 18.6 nmol | Flux (human abdominal skin; [4]): 0.3 ± 0.1 nmol/cm^2/h | Lag time (human abdominal skin; [4]): 5.1 ± 0.0 h | 24 h skin conc (human abdominal skin; Table 5, in propylene glycol, prodrug applied, found in skin as PD (prodrug)): 183.1 ± 62.8 (PD) μmol/g | 24 h cumulative amt (human abdominal skin; Table 9, in gel formulation): 1.1 ± 0.4 nmol | Flux (human abdominal skin; Table 9, in gel formulation): 0.05 ± 0.02 nmol/cm^2/h | Lag time (human abdominal skin; Table 9, in gel formulation): 1.6 ± 1.6 h | 24 h skin conc (human abdominal skin; Table 9, in gel formulation, as applied compound (CBD, or PD = intact prodrug)): 22.9 ± 9.3 (PD) μmol/g | 24 h skin conc (human abdominal skin; Table 9, in gel formulation, prodrug applied, found in skin as CBD): 0.4 ± 0.3 (CBD) μmol/g | 24 h skin conc (human abdominal skin; Table 10, in propylene glycol, as applied compound (CBD, or PD = intact prodrug)): 31.3 ± 5.5 (PD) μmol/g

C=C(C)C1CCC(C)=CC1c1c(OC(=O)CCOCC)cc(CCCCC)cc1OC(=O)CCOCC (stereo not drawn) [ALL00103]
found in the skin disposition (tissue) samples (human abdominal skin; Example 1): Some intact prodrug was found in the skin samples but very little cannabidiol was detected | 36 h skin conc. (human abdominal skin; in propylene glycol, as applied compound (CBD or intact prodrug)): 9.7 ± 1.0 µmol/g | 36 h skin conc. (human abdominal skin; in propylene glycol, prodrug applied, as total CBD equivalents): 9.7 ± 1.0 µmol/g | permeation through the skin (human abdominal skin): did not permeate (or were below LOD)

C=C(C)C1CCC(C)=CC1c1c(OC(=O)NCC)cc(CCCCC)cc1OC(=O)NCC (stereo not drawn) [ALL00104]
found in the skin disposition (tissue) samples (human abdominal skin; Example 1): Some intact prodrug was found in the skin samples but very little cannabidiol was detected | permeation through the skin (human abdominal skin): did not permeate (or were below LOD)

C=C(C)C1CCC(C)=CC1c1c(OC(=O)COCCOCCOC)cc(CCCCC)cc1OC(=O)COCCOCCOC (stereo not drawn) [ALL00141, CBD bis(2-[2-(2-methoxyethoxy)ethoxy]acetate)]
% mono-prodrug at time (h) ([1]; 2 h): 1% | % mono-prodrug at time (h) ([1]; 20 h): 2% | % Di-prodrug at time (h) ([1]; 0 h): 98% | % Di-prodrug at time (h) ([1]; 2 h): 71% | % Di-prodrug at time (h) ([1]; 20 h): 46%

From patent US8293786B2 (Alltranz Inc., priority 2007, dated 2012)
